# In ChEMBL document CHEMBL1201862, “PubChem BioAssay data set” (2004):
# Calls of active or inactive are those of the source.
# Columns and labels:
# [1] = target: Prothrombin (Homo sapiens, UniProt P00734); assay: Thrombin 1536 HTS Dose Response Confirmation. [Related pubchem assays: 1046 (Thrombin 1536 HTS; hits were confirmed in this assay)]; type: functional
# [2] = target: T1, Fatty acid synthase (Homo sapiens, UniProt P49327); assay: inhibition of human FAS-TE enzyme activity – biochemical, endpoint fluorescence intensity, uHTS hits, dose response (AID 624327); type: functional;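 note: fluorescence from hydrolysis of an O-methyl fluorescein acyl ester substrate by the enzyme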
# [3] = target: Nonstructural protein 1 (Influenza A virus, UniProt Q194T2); type: functional, Influenza A virus (A/California/07/2009(H1N1))
# [4] = target: T1, Fatty acid synthase; assay: inhibition of human FAS-TE enzyme activity – biochemical, kinetic fluorescence intensity, dose response (AID 624326); type: functional;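 note: rate of fluorescence rise from hydrolysis of a fluorogenic O-methyl fluorescein ester substrate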
# [5] = target: T2, Short transient receptor potential channel 4 (Mus musculus, UniProt Q9QUQ5); assay: calcium entry via TRPC4 opening agents – cell-based, HEK293 TRPC4/mu-opioid, Fluo-4 calcium, dose response (AID 434937); type: functional
# T2 sequence (Q9QUQ5 whole entry): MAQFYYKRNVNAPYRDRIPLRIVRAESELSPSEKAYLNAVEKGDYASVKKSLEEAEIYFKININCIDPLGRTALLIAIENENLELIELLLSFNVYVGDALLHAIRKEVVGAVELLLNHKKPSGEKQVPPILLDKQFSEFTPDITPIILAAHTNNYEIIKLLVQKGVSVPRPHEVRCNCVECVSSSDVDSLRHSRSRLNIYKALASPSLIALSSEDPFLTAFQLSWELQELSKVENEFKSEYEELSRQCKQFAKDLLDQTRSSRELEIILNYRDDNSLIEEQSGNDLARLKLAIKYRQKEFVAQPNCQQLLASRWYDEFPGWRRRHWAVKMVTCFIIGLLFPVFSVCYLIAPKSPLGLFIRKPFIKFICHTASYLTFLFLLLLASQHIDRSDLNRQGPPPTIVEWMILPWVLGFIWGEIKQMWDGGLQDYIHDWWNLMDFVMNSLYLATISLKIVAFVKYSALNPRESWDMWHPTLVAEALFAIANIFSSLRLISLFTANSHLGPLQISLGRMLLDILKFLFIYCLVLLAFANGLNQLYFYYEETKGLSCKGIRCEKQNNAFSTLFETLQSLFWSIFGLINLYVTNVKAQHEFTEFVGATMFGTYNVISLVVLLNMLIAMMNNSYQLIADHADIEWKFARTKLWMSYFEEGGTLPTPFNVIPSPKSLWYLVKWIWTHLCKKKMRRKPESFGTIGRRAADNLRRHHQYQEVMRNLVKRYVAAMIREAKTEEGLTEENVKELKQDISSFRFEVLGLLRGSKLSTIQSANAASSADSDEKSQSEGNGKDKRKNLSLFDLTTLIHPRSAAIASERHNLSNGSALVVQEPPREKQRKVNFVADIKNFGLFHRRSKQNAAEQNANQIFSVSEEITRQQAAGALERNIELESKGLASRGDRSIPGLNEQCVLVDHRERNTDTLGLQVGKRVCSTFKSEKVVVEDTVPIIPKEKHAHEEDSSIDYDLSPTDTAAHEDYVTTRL
# [6] = HEK-293T viability loss after treatment – luminescence, T-cell screen hits, cytotoxicity control for TCR NF-kB inhibitor project, dose response (AID 489026); type: functional, cell-based;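 note: cells exposed to compound about 14 hours before the viability readout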
# [7] = DRD fibroblast viability loss – cell-based, non-viral oncogenic, luminescence, dose response (AID 1934); type: functional; conditions: Homo sapiens
# [8] = alpha-synuclein stem-loop luciferase translation blockers – H4 neuroglioma cells, luminescence, confirmation (AID 1988); type: functional, cell-based
# [9] = Luminescence Cell-Based Dose Response HTS to Identify Inhibitors of 5'UTR Stem-Loop Driven Prion Protein mRNA Translation in H4 Neuroglioblastoma Cells. [Related pubchem assays: 1827 (Project Summary), 1813 (Primary HTS)]; type: functional
# [10] = luciferase reporter signal suppression in cells – H4 neuroglioma cells, luminescence, dose response (AID 1990); type: functional, cell-based
# [11] = system: BJ; assay: cells; type: functional, cell-based; conditions: Homo sapiens
# [12] = system: BJ; assay: BJ-TERT-LT-ST fibroblast viability loss – cell-based, RAS-independent, luminescence, dose response (AID 1935); type: functional; conditions: Homo sapiens;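 note: BJ fibroblasts immortalized with TERT plus LT and ST oncogenes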
# [13] = system: BJ; assay: BJ-TERT fibroblast viability loss – cell-based, RAS-independent, luminescence, dose response (AID 1933); type: functional; conditions: Homo sapiens
# [14] = target: Cytochrome P450 3A4 (Homo sapiens, UniProt P08684); conditions: Potency;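 note: confirmatory qHTS run detecting inhibitors and substrates of CYP3A4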
# [15] = OVCAR-3 cell viability loss – plate reader, dry powder samples, PAX8 inhibitor project, dose response (AID 743044); type: functional, cell-based
# [16] = target: Paired box protein Pax-8 (Homo sapiens, UniProt Q06710); assay: PAX8 transcriptional activity inhibition in RMG-I – RMG-I cells, luciferase, cherry-pick, dose response (AID 687027); type: functional, cell-based;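 note: luciferase reporter driven by Pax8 target thyroperoxidase promoter measured by SteadyGlo luminescence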
# [17] = OVCAR8 cell viability loss – plate reader, dry powder samples, PAX8 project, dose response (AID 743197); type: functional, cell-based; conditions: OVCAR-8
# [18] = system: Vero; assay: cells; type: functional; conditions: Chlorocebus sabaeus
# [19] = target: T3, Nuclear receptor subfamily 0 group B member 1 (Homo sapiens, UniProt P51843); assay: Luminescence-based cell-based high throughput dose response assay for inhibitors of the orphan nuclear receptor subfamily 0, group B, member 1 (DAX1; NR0B1). [Related pubchem assays (depositor defined):AID504766, AID504790]; type: functional
# T3 sequence (P51843 whole entry): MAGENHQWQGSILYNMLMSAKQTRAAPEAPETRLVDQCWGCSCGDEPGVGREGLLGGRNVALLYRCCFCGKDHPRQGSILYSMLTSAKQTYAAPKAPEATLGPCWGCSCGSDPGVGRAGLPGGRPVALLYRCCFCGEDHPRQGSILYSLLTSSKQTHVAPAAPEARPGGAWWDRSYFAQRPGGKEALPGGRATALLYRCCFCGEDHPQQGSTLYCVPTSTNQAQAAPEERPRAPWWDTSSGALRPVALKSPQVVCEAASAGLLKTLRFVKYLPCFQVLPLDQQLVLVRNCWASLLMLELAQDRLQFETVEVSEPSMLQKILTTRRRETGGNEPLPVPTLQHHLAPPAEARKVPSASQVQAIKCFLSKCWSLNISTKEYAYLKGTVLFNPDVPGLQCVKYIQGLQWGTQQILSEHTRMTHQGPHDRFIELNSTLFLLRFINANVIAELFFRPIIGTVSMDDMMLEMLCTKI
# [20] = system: HEK293; assay: cells; type: functional, cell-based; conditions: Homo sapiens
# [21] = target: G-protein coupled receptor 55 (Homo sapiens, UniProt Q9Y2T6); assay: inhibition of LPI-stimulated GPR55 beta-arrestin translocation – imaging, U2OS, beta-arrestin-GFP, LPI agonist, primary screen (AID 2013); type: functional;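 note: antagonist potency measured as reduced agonist-driven arrestin aggregation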
# [22] = target: T4, fMet-Leu-Phe receptor (Homo sapiens, UniProt P21462); assay: formyl peptide receptor binders – dose response (AID 519); type: functional
# T4 sequence (P21462 whole entry): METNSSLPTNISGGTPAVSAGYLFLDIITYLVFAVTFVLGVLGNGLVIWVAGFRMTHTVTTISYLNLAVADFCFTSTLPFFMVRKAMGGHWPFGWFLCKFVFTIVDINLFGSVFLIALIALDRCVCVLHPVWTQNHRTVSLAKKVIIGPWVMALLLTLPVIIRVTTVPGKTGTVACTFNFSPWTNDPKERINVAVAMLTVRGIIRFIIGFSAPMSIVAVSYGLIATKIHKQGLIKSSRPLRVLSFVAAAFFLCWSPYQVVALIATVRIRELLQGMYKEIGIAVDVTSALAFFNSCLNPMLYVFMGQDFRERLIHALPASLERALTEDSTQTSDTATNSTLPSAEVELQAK
# [23] = target: Induced myeloid leukemia cell differentiation protein Mcl-1 (Homo sapiens, UniProt Q07820); type: functional
# [24] = Luminescence Cell-Based Dose Retest to Confirm Inhibitors of Cancer Stem Cells. [Related pubchem assays (depositor defined):AID2717, AID2721]; type: functional; conditions: Homo sapiens
# [25] = target: T5, Protein skinhead-1 (Caenorhabditis elegans, UniProt P34707); type: functional
# T5 sequence (P34707 whole entry): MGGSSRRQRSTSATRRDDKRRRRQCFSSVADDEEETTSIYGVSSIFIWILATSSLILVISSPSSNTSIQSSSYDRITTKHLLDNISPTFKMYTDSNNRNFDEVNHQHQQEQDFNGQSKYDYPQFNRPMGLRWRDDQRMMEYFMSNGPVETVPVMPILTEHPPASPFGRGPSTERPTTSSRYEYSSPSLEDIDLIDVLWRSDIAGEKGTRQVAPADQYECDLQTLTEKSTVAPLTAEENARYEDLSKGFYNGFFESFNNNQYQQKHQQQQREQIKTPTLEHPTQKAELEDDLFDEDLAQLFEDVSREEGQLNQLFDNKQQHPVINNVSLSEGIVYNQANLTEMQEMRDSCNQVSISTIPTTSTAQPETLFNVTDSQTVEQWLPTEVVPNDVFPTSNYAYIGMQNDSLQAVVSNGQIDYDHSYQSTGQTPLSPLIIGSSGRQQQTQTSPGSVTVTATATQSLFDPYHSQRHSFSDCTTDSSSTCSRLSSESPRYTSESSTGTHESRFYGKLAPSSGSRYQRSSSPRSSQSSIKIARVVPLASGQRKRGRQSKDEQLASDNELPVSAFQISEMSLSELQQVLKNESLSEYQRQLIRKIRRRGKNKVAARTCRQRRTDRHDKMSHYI
# Chain of Cytochrome P450 3A4 (P08684 whole entry): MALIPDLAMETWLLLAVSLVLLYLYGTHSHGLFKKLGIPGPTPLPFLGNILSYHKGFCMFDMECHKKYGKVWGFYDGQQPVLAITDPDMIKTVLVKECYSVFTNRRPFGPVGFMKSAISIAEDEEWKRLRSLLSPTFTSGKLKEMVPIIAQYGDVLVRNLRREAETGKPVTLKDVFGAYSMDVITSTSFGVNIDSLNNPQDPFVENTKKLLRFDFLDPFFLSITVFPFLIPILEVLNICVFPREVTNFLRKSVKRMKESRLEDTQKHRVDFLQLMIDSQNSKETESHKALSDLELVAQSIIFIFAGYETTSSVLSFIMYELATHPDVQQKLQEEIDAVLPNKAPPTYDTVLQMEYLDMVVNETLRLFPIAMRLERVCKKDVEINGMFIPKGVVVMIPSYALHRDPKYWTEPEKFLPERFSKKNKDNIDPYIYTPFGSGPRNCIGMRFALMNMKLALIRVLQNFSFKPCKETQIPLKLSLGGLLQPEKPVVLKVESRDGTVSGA
# Chain of G-protein coupled receptor 55 (Q9Y2T6 whole entry): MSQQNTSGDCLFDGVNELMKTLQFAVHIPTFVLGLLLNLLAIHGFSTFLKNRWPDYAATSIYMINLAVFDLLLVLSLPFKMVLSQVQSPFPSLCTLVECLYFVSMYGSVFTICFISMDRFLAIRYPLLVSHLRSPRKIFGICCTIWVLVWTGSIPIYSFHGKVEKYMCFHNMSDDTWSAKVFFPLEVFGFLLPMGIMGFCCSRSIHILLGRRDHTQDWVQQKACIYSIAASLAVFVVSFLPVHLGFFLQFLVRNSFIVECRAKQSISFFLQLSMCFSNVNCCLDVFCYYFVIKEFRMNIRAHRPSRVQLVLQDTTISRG
# Chain of Paired box protein Pax-8 (Q06710 whole entry): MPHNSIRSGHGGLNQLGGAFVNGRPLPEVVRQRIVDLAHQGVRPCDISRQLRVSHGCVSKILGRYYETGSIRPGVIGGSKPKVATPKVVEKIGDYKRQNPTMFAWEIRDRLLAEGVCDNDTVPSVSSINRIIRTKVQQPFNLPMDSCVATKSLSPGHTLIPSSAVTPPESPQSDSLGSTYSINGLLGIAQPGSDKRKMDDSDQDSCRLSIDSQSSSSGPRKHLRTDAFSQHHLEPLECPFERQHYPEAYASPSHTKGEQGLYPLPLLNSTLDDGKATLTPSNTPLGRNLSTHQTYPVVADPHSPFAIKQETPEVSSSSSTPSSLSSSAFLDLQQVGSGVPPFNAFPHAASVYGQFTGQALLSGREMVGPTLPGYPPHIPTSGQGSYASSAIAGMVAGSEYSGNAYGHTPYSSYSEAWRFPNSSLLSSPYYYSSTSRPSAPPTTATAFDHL
# Chain of Nonstructural protein 1 (Q194T2 whole entry): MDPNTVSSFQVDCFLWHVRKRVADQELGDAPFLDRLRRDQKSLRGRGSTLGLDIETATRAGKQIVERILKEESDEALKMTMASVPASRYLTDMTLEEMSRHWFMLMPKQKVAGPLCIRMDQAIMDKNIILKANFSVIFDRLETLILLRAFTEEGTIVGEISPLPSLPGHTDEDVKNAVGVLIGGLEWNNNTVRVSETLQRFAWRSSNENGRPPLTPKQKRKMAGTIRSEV
# T1 sequence (P49327 whole entry): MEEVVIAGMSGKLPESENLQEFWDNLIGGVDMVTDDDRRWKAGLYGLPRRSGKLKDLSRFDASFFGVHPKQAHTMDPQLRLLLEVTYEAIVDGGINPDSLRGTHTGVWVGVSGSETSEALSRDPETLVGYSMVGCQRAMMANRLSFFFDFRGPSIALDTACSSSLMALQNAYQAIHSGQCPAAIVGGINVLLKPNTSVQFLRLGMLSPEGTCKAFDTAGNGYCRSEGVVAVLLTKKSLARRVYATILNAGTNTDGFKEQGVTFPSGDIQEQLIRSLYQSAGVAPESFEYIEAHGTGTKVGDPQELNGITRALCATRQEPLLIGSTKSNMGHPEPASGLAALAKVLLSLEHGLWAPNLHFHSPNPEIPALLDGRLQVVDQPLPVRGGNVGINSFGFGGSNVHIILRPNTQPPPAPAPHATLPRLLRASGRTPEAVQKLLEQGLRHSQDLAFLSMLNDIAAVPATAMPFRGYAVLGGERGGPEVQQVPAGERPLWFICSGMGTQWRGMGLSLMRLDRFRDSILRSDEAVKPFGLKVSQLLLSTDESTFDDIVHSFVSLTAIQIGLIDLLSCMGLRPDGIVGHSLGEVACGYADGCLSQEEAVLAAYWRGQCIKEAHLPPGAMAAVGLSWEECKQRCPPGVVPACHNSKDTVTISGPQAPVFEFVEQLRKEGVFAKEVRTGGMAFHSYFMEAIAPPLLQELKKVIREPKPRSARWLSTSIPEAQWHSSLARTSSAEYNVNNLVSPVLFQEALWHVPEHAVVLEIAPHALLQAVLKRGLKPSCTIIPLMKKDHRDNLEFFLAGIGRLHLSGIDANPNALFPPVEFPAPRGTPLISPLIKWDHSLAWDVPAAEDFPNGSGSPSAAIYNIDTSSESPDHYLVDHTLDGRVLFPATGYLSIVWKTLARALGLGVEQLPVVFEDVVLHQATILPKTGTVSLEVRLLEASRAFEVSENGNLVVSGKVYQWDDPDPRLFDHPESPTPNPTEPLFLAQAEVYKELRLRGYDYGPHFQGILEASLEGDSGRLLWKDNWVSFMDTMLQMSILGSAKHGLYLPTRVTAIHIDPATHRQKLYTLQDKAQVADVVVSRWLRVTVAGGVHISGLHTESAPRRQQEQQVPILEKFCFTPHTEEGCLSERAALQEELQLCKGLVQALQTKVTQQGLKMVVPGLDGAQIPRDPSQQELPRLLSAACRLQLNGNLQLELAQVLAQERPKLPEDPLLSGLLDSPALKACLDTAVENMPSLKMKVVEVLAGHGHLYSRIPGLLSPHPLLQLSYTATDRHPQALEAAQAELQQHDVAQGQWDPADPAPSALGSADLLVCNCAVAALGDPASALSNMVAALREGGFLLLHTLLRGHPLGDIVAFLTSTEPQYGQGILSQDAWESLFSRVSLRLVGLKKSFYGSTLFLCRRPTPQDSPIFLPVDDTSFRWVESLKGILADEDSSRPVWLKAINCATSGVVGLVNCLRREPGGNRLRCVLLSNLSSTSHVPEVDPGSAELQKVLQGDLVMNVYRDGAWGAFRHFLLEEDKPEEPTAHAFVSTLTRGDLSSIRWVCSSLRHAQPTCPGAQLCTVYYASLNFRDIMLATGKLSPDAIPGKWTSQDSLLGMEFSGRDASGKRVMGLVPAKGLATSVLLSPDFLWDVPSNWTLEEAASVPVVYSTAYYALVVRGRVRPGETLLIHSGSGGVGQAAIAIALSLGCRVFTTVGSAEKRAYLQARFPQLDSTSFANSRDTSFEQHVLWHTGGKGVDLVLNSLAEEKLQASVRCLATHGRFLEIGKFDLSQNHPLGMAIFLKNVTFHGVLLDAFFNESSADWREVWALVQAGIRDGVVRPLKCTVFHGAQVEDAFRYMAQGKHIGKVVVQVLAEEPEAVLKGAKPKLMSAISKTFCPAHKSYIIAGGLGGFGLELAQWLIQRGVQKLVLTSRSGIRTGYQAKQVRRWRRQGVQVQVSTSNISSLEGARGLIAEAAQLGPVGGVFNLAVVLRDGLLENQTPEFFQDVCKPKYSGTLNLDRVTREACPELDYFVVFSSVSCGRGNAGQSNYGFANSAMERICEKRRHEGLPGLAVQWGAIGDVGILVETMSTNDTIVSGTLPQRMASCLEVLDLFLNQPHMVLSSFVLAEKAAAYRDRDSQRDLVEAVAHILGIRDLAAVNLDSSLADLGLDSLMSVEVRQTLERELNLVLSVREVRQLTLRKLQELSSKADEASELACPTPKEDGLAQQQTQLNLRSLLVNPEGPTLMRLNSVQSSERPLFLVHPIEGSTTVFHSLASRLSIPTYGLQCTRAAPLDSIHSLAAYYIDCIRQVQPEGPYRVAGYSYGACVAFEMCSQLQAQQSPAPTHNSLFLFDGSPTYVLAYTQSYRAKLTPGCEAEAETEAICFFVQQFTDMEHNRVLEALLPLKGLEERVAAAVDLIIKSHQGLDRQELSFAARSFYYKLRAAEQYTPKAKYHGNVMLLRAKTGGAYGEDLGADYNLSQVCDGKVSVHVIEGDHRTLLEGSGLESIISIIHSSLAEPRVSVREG
# Chain of Induced myeloid leukemia cell differentiation protein Mcl-1 (Q07820 whole entry): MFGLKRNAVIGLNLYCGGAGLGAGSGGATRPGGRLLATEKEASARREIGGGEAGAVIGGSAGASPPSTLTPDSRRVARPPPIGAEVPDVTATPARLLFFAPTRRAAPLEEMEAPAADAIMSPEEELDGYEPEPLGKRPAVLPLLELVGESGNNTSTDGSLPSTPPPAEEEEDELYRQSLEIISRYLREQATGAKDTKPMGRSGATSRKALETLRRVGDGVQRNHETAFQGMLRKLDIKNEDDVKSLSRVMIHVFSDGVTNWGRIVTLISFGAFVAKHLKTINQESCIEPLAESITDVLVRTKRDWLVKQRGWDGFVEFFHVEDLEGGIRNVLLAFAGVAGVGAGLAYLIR
compound,measurement,setting,value
CCCC(=O)n1nc(-c2cccnc2)nc1NCc1cccs1,IC50,[1],0.00426 µM (active)
Cc1cc(-c2ccccc2)nc(N/N=C/c2ccc([N+](=O)[O-])cc2)n1,IC50,[2],8.37 µM (active)
same,IC50,[3],> 100 µM (active)
same,IC50,[4],6.41 µM (active)
O=[N+]([O-])c1ccc(N2CCCNCC2)c2ncccc12,EC50,[5],0.008 µM (active)
Oc1cc(-c2ccccc2)nc2cc(Cl)ccc12,IC50,[6],> 80 µM (inactive)
same,EC50,[7],0.906 µM (inconclusive)
same,EC50,[8],0.209 µM (active)
same,EC50,[9],2.36 µM (active)
same,EC50,[10],2.42 µM (inconclusive)
same,EC50,[11],19.8 µM (active)
same,EC50,[12],1.42 µM (inconclusive)
same,EC50,[13],1.04 µM (active)
CCN(CC)c1ccc2c(C)cc(=O)oc2c1,AC50,[14],20 µM (inconclusive)
COc1ccc(C(CNC(=O)c2cccc(S(=O)(=O)NCc3ccccc3)c2)N(C)C)cc1 (centres undefined),EC50,[5],0.421 µM (active)
COc1ccc(-c2ccc3c(c2)[C@@H]2[C@@H](CCN2S(=O)(=O)c2ccc(OC)cc2)[C@@H](CO)N3C)cc1,AC50,[15],31.2 µM (active)
same,AC50,[16],12.3 µM (active)
same,AC50,[17],51.2 µM (active)
COc1ccc(/C=C2/CSC/C(=C/c3ccc(OC)c(OC)c3)C2=O)cc1OC,CC50,[18],8.1 µM (active)
COCCN(C(S)=Nc1cccc(C)c1C)C(C)c1ccco1 (centres undefined),IC50,[19],> 67.6 µM (inactive)
same,IC50,[20],> 67.6 µM (inactive)
COc1ccc(-c2cc3nc4n(c(=O)c3s2)CCCCC4)cc1,IC50,[19],> 67.5 µM (inactive)
same,IC50,[20],> 67.5 µM (inactive)
COc1ccccc1C(=O)NCc1nnc(SCC(=O)Nc2nccs2)n1C,IC50,[19],> 67.6 µM (inactive)
same,IC50,[20],> 67.6 µM (inactive)
CC(C)c1ccc2c(c1)CCC1C(C)(C(N)=O)CCCC21C (centres undefined),AC50,[14],20 µM (inconclusive)
Cc1ccc(/C=C2\C(=O)NC(=O)N(CCc3ccc(F)cc3)C2=O)o1,IC50,[21],3.55 µM (active)
Cc1csc2c(N3CCN(C(=O)NC(C)(C)C)CC3)ncnc12,EC50,[5],5.31 µM (active)
O=C1NC2(CCCCC2)NN1c1ccccc1,IC50,[1],> 50 µM (not active)
CCOc1cnc(C(=O)NNC(=O)C(Br)C(C)C)o1 (centres undefined),IC50,[19],> 67.5 µM (inactive)
same,IC50,[20],> 67.5 µM (inactive)
CC(C)=CCC/C(C)=C/C=C/C1=CC2(C)CC1(C)C(/C=C(\C)CCC=C(C)C)CC2=O (centres undefined),AC50,[14],3.98 µM (inconclusive)
O=C(C1=C(O)C(=O)N(CCc2ccccc2)C1c1cccnc1)c1ccco1 (centres undefined),Ki,[22],> 66.7 µM (inactive)
Cc1ccc(S(=O)(=O)Nc2ccc3c(c2)C(=O)N([C@@H](C)CO)C[C@@H](C)[C@H](CN(C)Cc2ccc(C(F)(F)F)cc2)OCCCC[C@H](C)O3)cc1,AC50,[15],4.07 µM (active)
same,AC50,[16],6.38 µM (active)
same,AC50,[17],> 70 µM (inactive)
CC(=O)n1nc(-c2ccc(Cl)cc2)nc1NCc1ccco1,IC50,[1],1.44 µM (active)
COc1ccc(CN2CCC(n3nccc3NC(=O)CCc3ccccc3)CC2)c(C)c1C,EC50,[5],2.11 µM (active)
COCCN(CCOC)c1nc(C)nc2c1nc(-c1ccccc1)n2CCN1CCCC1,AC50,[14],20 µM (inconclusive)
COc1cc(/C=N/Nc2n[nH]c3c4ccccc4nc-3n2)ccc1O,IC50,[23],3.9 µM (active)
COC(=O)[C@H](C(C)C)n1c(C)c(C(C)=O)c(C(C)=O)c1C,Ki,[22],> 66.7 µM (inactive)
O=C(C1=C(O)C(=O)N(CCCN2CCOCC2)C1c1ccccn1)c1cc2ccccc2o1 (centres undefined),Ki,[22],60.7 µM (inactive)
Cc1ccc2[nH]c(SCC(=O)Nc3cc(C(F)(F)F)ccc3N3CCOCC3)nc2c1,IC50,[6],> 80 µM (inactive)
same,EC50,[9],27.9 µM (active)
same,EC50,[10],5.2 µM (inconclusive)
COc1cc(/C=N/NC(=O)c2cc(C34CC5CC(CC(C5)C3)C4)[nH]n2)ccc1O,AC50,[24],0.699 µM (active)
same,IC50,[21],2.69 µM (active)
O=C(CSC1CCCCC1)Nc1nccs1,IC50,[1],> 50 µM (not active)
CCN1C(=O)/C(=C2\C=Cc3cc(C)ccc3N2CC)OC1=S,IC50,[3],> 100 µM (active)
same,IC50,[25],> 100 µM (inactive)
COc1ccc(-c2[nH]ncc2CN2CCN(Cc3cccs3)CC2)cc1F,IC50,[19],> 67.5 µM (inactive)
same,IC50,[20],> 67.5 µM (inactive)
Clc1ccc2oc3c(Cl)ncnc3c2c1,IC50,[21],6.41 µM (active)
NC(=O)c1ccsc1NC(=O)c1nc(-c2ccccc2)n(-c2ccccc2)n1,IC50,[1],4.3 µM (active)
